SMILES strings stand for the structures. ≈ marks a conversion by molar mass, not a printed value. Where “and” joins values, the source holds several entries; their conditions need not be identical. Equal values may be shown once. Read-outs that look alike come from different tables or passages of the source.

For one data set, the system named is D. pneumoniae. Description: In vitro activity (geometric mean MIC, serial dilution). In kind it is cell-based. To be noted: Streptococcus pneumoniae; 9 strains; Mueller-Hinton agar, inoculum 10^4 dilution; MIC cutoff 200 mcg./ml.
Another data set deals with Klebsiella sp. The description is as above. In kind it is cell-based. The following applies: 12 strains, Mueller-Hinton agar, inoculum 10^4 dilution, MIC cutoff 200 mcg./ml., read-out: Geometric Mean MIC.
Another data set concerns Enterob. cloacae. Kind of data set: In vitro antibacterial activity (Steers' agar dilution MIC). Format: cell-based. On the technique in general: In agar dilution, organisms are placed on agar that contains the substance at set levels.
Data set [1] concerns E. coli (Penicillinase +). Kind of data set: In vitro activity (geometric mean MIC, serial dilution). To be noted: Escherichia coli; 7 strains; Mueller-Hinton agar, inoculum 10^4 dilution; MIC cutoff 200 mcg./ml.; read-out: Geometric Mean MIC. Format: cell-based.
The test system of another data set is E. coli Juhl. Kind of data set: In vivo activity (Mice, sc). To be noted: several determinations listed. The text has this:
(§1) |In vivo Activity of BB-[…] and Related Compounds (Mice, sc) | (PD50 (mgm./kg.)

Another data set relates to S. aureus Smith. Description: In vivo activity (Mice, sc). The following applies: several determinations listed; for ED50: Staphylococcus aureus, read-out: PD50.
Text: as §1

Data set [2] concerns Proteus (indole +, cephalosporinase +). Kind of data set: In vitro activity (geometric mean MIC, serial dilution). Format: cell-based. To be noted: 5 strains; Mueller-Hinton agar, inoculum 10^4 dilution; MIC cutoff 200 mcg./ml.; read-out: Geometric Mean MIC.
The test system of the next data set is Pr. mirabilis. Description: In vitro antibacterial activity (Steers' agar dilution MIC). In kind it is cell-based. The following applies: Proteus mirabilis.
For data set [3], the system named is Miscellaneous (Salmonella, Shigella, Citrobacter). Description: microbe, parasite or virus in culture. The following applies: read-out: Geometric Mean MIC.
The test system of a further data set is S. aureus (sensitive). Description: In vitro activity (geometric mean MIC, serial dilution). Format: cell-based. The following applies: Staphylococcus aureus, read-out: Geometric Mean MIC.
Another data set has as its system rabbits. Kind of data set: Preliminary nephrotoxicity study. In kind it is in vivo. To be noted: two rabbits, 100 mg./kg. intravenously. On the procedure:
A preliminary nephrotoxicity study was carried out by administration of the test compound to a group of two rabbits at 100 mg./kg. intravenously.

Where [4] appears, read: table 4 (BB-S 525), Pr. mirabilis, 2nd line, read-out: MIC.

In the case of `CNCc1ccccc1CC(=O)N[C@@H]1C(=O)N2C(C(=O)O)=C(CSc3ccc4nn(CC(=O)O)c(=O)n4n3)CS[C@H]12` [BB-S479, 7-[o-(Methylaminomethyl)phenylacetamido]-3-(2-carboxymethyl-2,3-dihydro-s-triazolo[4,3-b]pyridazin-3-on-6-ylthiomethyl)-3-cephem-4-carboxylic Acid], the MIC was 0.04 µg/mL (≈ 0.0667 µM) with D. pneumoniae; 0.6 µg/mL (≈ 1 µM) in the data set with Klebsiella sp.; 1.6 µg/mL (≈ 2.67 µM) in the data set with Enterob. cloacae (table 2 (BB-S493), Enterob. cloacae A9656, read-out: MIC); 3.1 µg/mL (≈ 5.17 µM) in the data set with Enterob. cloacae (table 4 (BB-S 525), Enterob. cloacae, read-out: MIC); 2.6 µg/mL (≈ 4.34 µM) in data set [1]; 4.8 µg/mL (≈ 8 µM) in data set [2]. Further, the MIC in the data set with Pr. mirabilis (table 2 (BB-S493), Pr. mirabilis A9554, read-out: MIC) was 0.1 µg/mL (≈ 0.167 µM); in the data set on Pr. mirabilis (table 2 (BB-S493), Pr. mirabilis A9900, read-out: MIC) it was 0.1 µg/mL (≈ 0.167 µM); in the data set on Pr. mirabilis (table 4 (BB-S 525), Pr. mirabilis, 1st line, read-out: MIC), 0.1 µg/mL (≈ 0.167 µM); with Pr. mirabilis (setting [4]), 0.1 µg/mL (≈ 0.167 µM); in [3] it was 0.4 µg/mL (≈ 0.667 µM); in the data set on S. aureus (sensitive) it was 0.3 µg/mL (≈ 0.5 µM). Further, the ED50 amounted to 0.19 mg/kg in the data set with E. coli Juhl (Escherichia coli, read-out: PD50) and 0.16 mg/kg with S. aureus Smith. For the same compound, the PD50 was 0.15 mgm./kg. and 0.12 mgm./kg in the data set with E. coli Juhl; 0.12 mgm./kg. and 0.2 mgm./kg in the data set with S. aureus Smith. In addition, the nephrotoxic potential result in the data set with rabbits was “little nephrotoxic potential”.

Regarding `Cn1nnnc1SCC1=C(C(=O)O)N2C(=O)[C@@H](NC(=O)[C@H](O)c3ccccc3)[C@H]2SC1` [Cefamandole, reference compound], the MIC in the data set with D. pneumoniae turned out to be 0.2 µg/mL (≈ 0.432 µM); in the data set with Klebsiella sp., 2.4 µg/mL (≈ 5.19 µM); in the data set on Enterob. cloacae (table 2 (BB-S493), Enterob. cloacae A9656) it was 3.1 µg/mL (≈ 6.7 µM); against Enterob. cloacae (table 4 (BB-S 525), Enterob. cloacae) it was 1.6 µg/mL (≈ 3.46 µM); in [1], 5.7 µg/mL (≈ 12.3 µM); in data set [2], 3.6 µg/mL (≈ 7.78 µM). Further, the MIC with Pr. mirabilis (table 2 (BB-S493), Pr. mirabilis A9554) was found to be 0.8 µg/mL (≈ 1.73 µM); in the data set on Pr. mirabilis (table 2 (BB-S493), Pr. mirabilis A9900), 0.8 µg/mL (≈ 1.73 µM); against Pr. mirabilis (table 4 (BB-S 525), Pr. mirabilis, 1st line), 0.4 µg/mL (≈ 0.865 µM); with Pr. mirabilis (setting [4]), 0.2 µg/mL (≈ 0.432 µM); in data set [3] it was 0.3 µg/mL (≈ 0.649 µM); in the data set on S. aureus (sensitive), 0.1 µg/mL (≈ 0.216 µM). In the data set with S. aureus Smith, the ED50 was 0.93 mg/kg. Also, in the data set on S. aureus Smith, the PD50 is 0.74 mgm./kg. and 0.6 mgm./kg. and 0.8 mgm./kg.
